Like-named read-outs stand apart in the source and are kept apart here.
Legend:
HeLa cells = test: XTT cytotoxicity assay with HeLa cells; format: cell-based; settings: Homo sapiens
Experimental: XTT assay. Cytotoxicity assays were performed in triplicate against HeLa cells (ATCC CCL-2). The IC50 values were calculated by nonlinear regression with GraphPad Prism 5 (San Diego, Calif.).
XTT assay. XTT assays were performed with HeLa cells (ATCC CCL-2) in triplicate, as previously described (Lancet 2008, 371, 1486). IC50 values were determined by nonlinear regression using GraphPad Prism 5 (San Diego, Calif.).

Corynebacterium spp. = test: MIC against gut bacterium Corynebacterium spp.; format: cell-based; settings: Corynebacterium, Corynebacterium spp. strain HM-784
S. aureus ATCC29213 = test: MIC against MSSA; format: cell-based, Staphylococcus aureus; settings: Staphylococcus aureus
[1] = test system: Fecal microbiota preparation; test: MIC against fecal microbiota preparation; format: cell-based; settings: Fecal microbiota preparation from OpenBiome tested at 1000-fold dilution
Summary of the method: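 Broth microdilution in brucella broth with hemin and vitamin K or supplemented BHIS; MRS broth for lactobacilli, sodium lactate added for Veillonella. Incubation 24 h or 48 h at 37° C anaerobically, except Corynebacterium and Lactobacillus grown aerobically.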

Lactobacillus gasseri = test: MIC against gut bacterium Lactobacillus gasseri; format: cell-based
Eubacterium sp. = test: MIC against gut bacterium Eubacterium sp.; format: cell-based; settings: Eubacterium, Eubacterium sp. strain HM-178, read-out: MIC
Bifidobacterium longum = test: MIC against gut bacterium Bifidobacterium longum; format: cell-based; settings: Bifidobacterium longum, Bifidobacterium longum strain HM-846, read-out: MIC
Bacteroides fragilis = test: MIC against gut bacterium Bacteroides fragilis; format: cell-based; settings: Bacteroides fragilis, Bacteroides fragilis strain HM-709, read-out: MIC
E. faecium NCTC7171 = test: MIC against E. faecium; format: cell-based, Enterococcus faecium; settings: Enterococcus faecium
Lactobacillus reuteri = test: MIC against gut bacterium Lactobacillus reuteri; format: cell-based
Veillonella sp. HM-49 = test: MIC against gut bacterium Veillonella sp.; format: cell-based
Fusobacterium nucleatum = test: MIC against gut bacterium Fusobacterium nucleatum; format: cell-based; settings: Fusobacterium nucleatum, Fusobacterium nucleatum strain HM-992, read-out: MIC
C. difficile = test: MIC by broth microdilution against C. difficile strains; format: cell-based, Clostridioides difficile

With O=C(O)c1ccc2oc(NC(=O)c3cc(Oc4cccc(OC(F)(F)F)c4)ccn3)nc2c1 [Compound 1, Sodium 2-(4-(3-(trifluoromethoxy)phenoxy)picolinamido)benzo[d]oxazole-5-carboxylate] the IC50 (HeLa cells) was 179 ± 4 µg/mL, the IC50 (HeLa cells; Table 6) was 179 µg/mL and the MIC (Corynebacterium spp.; Table 1) was 8 µg/mL. For the same compound, the MIC (Corynebacterium spp.; Table 7) was 8 µg/mL, the MIC (S. aureus ATCC29213; MSSA ATCC 29213, Table 10, unit inferred, read-out: Activity (MIC) against S. aureus) was 64 µg/mL and the MIC (S. aureus ATCC29213; S. aureus ATCC29213, Table 1, read-out: MIC) was 64 µg/mL. For the same compound, the MIC [1] was greater than 128 µg/mL, the MIC (Lactobacillus gasseri; Lactobacillus gasseri strain HM-644, Table 7) was greater than 16 µg/mL and the MIC (Lactobacillus gasseri; Lactobacillus gasseri, Lactobacillus gasser strain HM-644, Table 1, read-out: MIC) was greater than 16 µg/mL. For the same compound, the MIC (Eubacterium sp.; Table 1) was 8 µg/mL, the MIC (Eubacterium sp.; Table 7) was 16 µg/mL and the MIC (Bifidobacterium longum; Table 1) was 16 µg/mL. The MIC (Bifidobacterium longum; Table 7) was 16 µg/mL, the MIC (Bacteroides fragilis; Table 1) was 2 µg/mL and the MIC (Bacteroides fragilis; Table 7) was 4 µg/mL. The MIC (E. faecium NCTC7171; NCTC7171, E. faecium NCTC 7171, Table 10, unit inferred, read-out: Activity (MIC) against E. faecium) was no less than 128 µg/mL, the MIC (E. faecium NCTC7171; E. faecium NCTC7171, Table 1, read-out: MIC) was greater than 128 µg/mL and the MIC (Lactobacillus reuteri; Lactobacillus reuteri strain HM-102, Table 7) was 4 µg/mL. It also gave an MIC (Lactobacillus reuteri; Limosilactobacillus reuteri, Lactobacillus reuter strain HM-102, Table 1, read-out: MIC) of 4 µg/mL, an MIC (Veillonella sp. HM-49; SP.HM49, Veillonella sp. HM-49, Table 1, read-out: MIC) of 16 µg/mL and an MIC (Veillonella sp. HM-49; Veillonella sp. strain HM-49, Table 7) of 16 µg/mL. It also gave an MIC (Fusobacterium nucleatum; Table 1) of 4 µg/mL, an MIC (Fusobacterium nucleatum; Table 7) of 4 µg/mL and an MIC (C. difficile; C. difficile 23691 (VR, vancomycin-resistant), Table 7) of 0.125 µg/mL. The MIC (C. difficile; C. difficile 23691, Table 9) was 0.125 µg/mL, the MIC (C. difficile; C. difficile 24923 (VR, vancomycin-resistant), Table 7) was 0.125 µg/mL and the MIC (C. difficile; C. difficile 24923, Table 9) was 0.125 µg/mL. For the same compound, the MIC (C. difficile; C. difficile 27081 (FR, fidaxomicin-resistant), Table 7) was 0.125 µg/mL, the MIC (C. difficile; C. difficile 27081, Table 9) was 0.125 µg/mL and the MIC (C. difficile; C. difficile 27173 (MR, metronidazole-resistant), Table 7) was 0.125 µg/mL. For the same compound, the MIC (C. difficile; C. difficile 27173, Table 9) was 0.125 µg/mL, the MIC (C. difficile; C. difficile ATCC43255, Table 7) was 0.125 µg/mL and the MIC (C. difficile; C. difficile ATCC43255, Table 9) was 0.125 µg/mL. The MIC (C. difficile; C. difficile ATCC43598, Table 9) was 0.125 µg/mL, the MIC (C. difficile; C. difficile BAA-1801, Table 9) was 0.125 µg/mL and the MIC (C. difficile; C. difficile BAA-1804, Table 9) was 0.125 µg/mL. The MIC (C. difficile; C. difficile BAA-1812, Table 9) was 0.125 µg/mL, the MIC (C. difficile; C. difficile BAA-1814, Table 9) was 0.125 µg/mL and the MIC (C. difficile; C. difficile BAA-1870, Table 7) was 0.125 µg/mL. It also gave an MIC (C. difficile; C. difficile BAA-1870, Table 9) of 0.125 µg/mL, an MIC (C. difficile; C. difficile HM-89, Table 9) of 0.125 µg/mL and an MIC (C. difficile; C. difficile HM-745, Table 9) of 0.125 µg/mL. The MIC (C. difficile; C. difficile HM-746, Table 9) was 0.125 µg/mL, the MIC (C. difficile; C. difficile HM-747, Table 9) was 0.125 µg/mL and the MIC (C. difficile; C. difficile NR49292, Table 7) was 0.125 µg/mL. The MIC (C. difficile; C. difficile NR49292, Table 9) was 0.125 µg/mL, the MIC (C. difficile; C. difficile NR49310, Table 7) was 0.125 µg/mL and the MIC (C. difficile; C. difficile NR49310, Table 9) was 0.125 µg/mL. It also gave an MIC (C. difficile; C. difficile NR-13427, Table 9) of 0.125 µg/mL, an MIC (C. difficile; C. difficile NR-13428, Table 9) of 0.125 µg/mL and an MIC (C. difficile; C. difficile NR-13430, Table 9) of 0.125 µg/mL. It also gave an MIC (C. difficile; C. difficile NR-13434, Table 9) of 0.125 µg/mL, an MIC (C. difficile; C. difficile NR-13435, Table 9) of 0.125 µg/mL and an MIC (C. difficile; C. difficile NR-13436, Table 9) of 0.125 µg/mL. For the same compound, the MIC (C. difficile; C. difficile NR-13437, Table 9) was 0.125 µg/mL, the MIC (C. difficile; C. difficile NR-13438, Table 9) was 0.125 µg/mL and the MIC (C. difficile; C. difficile NR-13553, Table 9) was 0.125 µg/mL. The MIC (C. difficile; C. difficile NR-32882, Table 9) was 0.125 µg/mL, the MIC (C. difficile; C. difficile NR-32883, Table 9) was 0.125 µg/mL and the MIC (C. difficile; C. difficile NR-32884, Table 9) was 0.125 µg/mL. For the same compound, the MIC (C. difficile; C. difficile NR-32886, Table 9) was 0.125 µg/mL, the MIC (C. difficile; C. difficile NR-32887, Table 9) was 0.125 µg/mL and the MIC (C. difficile; C. difficile NR-32888, Table 9) was 0.125 µg/mL. It also gave an MIC (C. difficile; C. difficile NR-32889, Table 9) of 0.125 µg/mL, an MIC (C. difficile; C. difficile NR-32892, Table 9) of 0.125 µg/mL and an MIC (C. difficile; C. difficile NR-32897, Table 9) of 0.125 µg/mL. It also gave an MIC (C. difficile; C. difficile NR-32900, Table 9) of 0.125 µg/mL, an MIC (C. difficile; C. difficile NR-32904, Table 9) of 0.125 µg/mL and an MIC (C. difficile; C. difficile NR-49277, Table 9) of 0.125 µg/mL. For the same compound, the MIC (C. difficile; C. difficile NR-49278, Table 9) was 0.125 µg/mL, the MIC (C. difficile; C. difficile NR-49279, Table 9) was 0.125 µg/mL and the MIC (C. difficile; C. difficile NR-49280, Table 9) was 0.125 µg/mL. For the same compound, the MIC (C. difficile; C. difficile NR-49282, Table 9) was 0.125 µg/mL, the MIC (C. difficile; C. difficile NR-49286, Table 9) was 0.125 µg/mL and the MIC (C. difficile; C. difficile NR-49288, Table 9) was 0.125 µg/mL. For the same compound, the MIC (C. difficile; C. difficile NR-49290, Table 9) was 0.125 µg/mL, the MIC (C. difficile; C. difficile NR-49291, Table 9) was 0.125 µg/mL and the MIC (C. difficile; C. difficile NR-49293, Table 9) was 0.125 µg/mL. For the same compound, the MIC (C. difficile; C. difficile NR-49295, Table 9) was 0.125 µg/mL and the MIC (C. difficile; C. difficile NR-49296, Table 9) was 0.125 µg/mL.

Source: patent publication US20230271950A1, “ANTIBACTERIAL PICOLINAMIDE COMPOUNDS” (University of Notre Dame Du Lac, priority 2020, published 2023)
